In ChEMBL document CHEMBL1130502, “Lipopeptide antifungal agents: Amine conjugates of the semi-synthetic pneumocandins L-731,373 and L-733,560” (Bioorg Med Chem Lett, 1997):
pIC50: −log10 of the molar value. In brackets after ≈: the same amount, converted by molar mass.

Key:
1,3-beta-glucan synthase = 1,3-beta-glucan synthase (Candida glabrata, UniProt F5BCZ9); test: Inhibition of 1,3-beta-glucan synthase; design: species or system Candida glabrata CBS 138
Candida albicans [1] = test: Tested for minimum fungicidal concentration (MFC) against Candida albicans (MY 1055); format: functional
Candida albicans [2] = test: Tested for in vitro minimum fungicidal concentration (MFC) against C. albicans; 0.25-1; format: functional
[3] = test system: Meyerozyma guilliermondii; test: Tested for in vitro minimum fungicidal concentration (MFC) against Candida guilliermondii 1-16; format: functional
Pichia kudriavzevii = test: Tested for in vitro minimum fungicidal concentration (MFC) against C. krusei; 2-4; format: functional
Kluyveromyces marxianus = test: Tested for in vitro minimum fungicidal concentration (MFC) againstC. pseudotropicalis; 0.25-1; format: functional
Nakaseomyces glabratus = test: Tested for in vitro minimum fungicidal concentration (MFC) against C. glabrata; 1-4; format: functional
Candida parapsilosis = test: Tested for in vitro minimum fungicidal concentration (MFC) against C. parapsilosis; 0.25-1; format: functional
Candida tropicalis = test: Tested for in vitro minimum fungicidal concentration (MFC) against C. tropicalis; 0.25-1; format: functional
Clavispora lusitaniae = test: Tested for in vitro minimum fungicidal concentration (MFC) against Candida lusitaniae 0.125-1; format: functional
Cryptococcus neoformans = test: Tested for in vitro minimum fungicidal concentration (MFC) against C. neoformans; 8-32; format: functional
Mus musculus [4] = organism: Mus musculus; test: […] anti-candida activity expressed as ED99.9 in a mouse model of disseminated candidiasis (TOKA); format: functional
Mus musculus [5] = test: In vivo effective intraperitoneal dose to achieve least 50% survival in a mouse model of disseminated aspergillosis; format: functional; details: ip
Mus musculus [6] = organism: Mus musculus; test: Percentage of mice with complete eradication of candida in kidneys; format: functional, Kidney
[7] = Acute toxicity in mice after intravenous administration; details: mouse, in vivo

Sequence of 1,3-beta-glucan synthase (F5BCZ9 whole entry): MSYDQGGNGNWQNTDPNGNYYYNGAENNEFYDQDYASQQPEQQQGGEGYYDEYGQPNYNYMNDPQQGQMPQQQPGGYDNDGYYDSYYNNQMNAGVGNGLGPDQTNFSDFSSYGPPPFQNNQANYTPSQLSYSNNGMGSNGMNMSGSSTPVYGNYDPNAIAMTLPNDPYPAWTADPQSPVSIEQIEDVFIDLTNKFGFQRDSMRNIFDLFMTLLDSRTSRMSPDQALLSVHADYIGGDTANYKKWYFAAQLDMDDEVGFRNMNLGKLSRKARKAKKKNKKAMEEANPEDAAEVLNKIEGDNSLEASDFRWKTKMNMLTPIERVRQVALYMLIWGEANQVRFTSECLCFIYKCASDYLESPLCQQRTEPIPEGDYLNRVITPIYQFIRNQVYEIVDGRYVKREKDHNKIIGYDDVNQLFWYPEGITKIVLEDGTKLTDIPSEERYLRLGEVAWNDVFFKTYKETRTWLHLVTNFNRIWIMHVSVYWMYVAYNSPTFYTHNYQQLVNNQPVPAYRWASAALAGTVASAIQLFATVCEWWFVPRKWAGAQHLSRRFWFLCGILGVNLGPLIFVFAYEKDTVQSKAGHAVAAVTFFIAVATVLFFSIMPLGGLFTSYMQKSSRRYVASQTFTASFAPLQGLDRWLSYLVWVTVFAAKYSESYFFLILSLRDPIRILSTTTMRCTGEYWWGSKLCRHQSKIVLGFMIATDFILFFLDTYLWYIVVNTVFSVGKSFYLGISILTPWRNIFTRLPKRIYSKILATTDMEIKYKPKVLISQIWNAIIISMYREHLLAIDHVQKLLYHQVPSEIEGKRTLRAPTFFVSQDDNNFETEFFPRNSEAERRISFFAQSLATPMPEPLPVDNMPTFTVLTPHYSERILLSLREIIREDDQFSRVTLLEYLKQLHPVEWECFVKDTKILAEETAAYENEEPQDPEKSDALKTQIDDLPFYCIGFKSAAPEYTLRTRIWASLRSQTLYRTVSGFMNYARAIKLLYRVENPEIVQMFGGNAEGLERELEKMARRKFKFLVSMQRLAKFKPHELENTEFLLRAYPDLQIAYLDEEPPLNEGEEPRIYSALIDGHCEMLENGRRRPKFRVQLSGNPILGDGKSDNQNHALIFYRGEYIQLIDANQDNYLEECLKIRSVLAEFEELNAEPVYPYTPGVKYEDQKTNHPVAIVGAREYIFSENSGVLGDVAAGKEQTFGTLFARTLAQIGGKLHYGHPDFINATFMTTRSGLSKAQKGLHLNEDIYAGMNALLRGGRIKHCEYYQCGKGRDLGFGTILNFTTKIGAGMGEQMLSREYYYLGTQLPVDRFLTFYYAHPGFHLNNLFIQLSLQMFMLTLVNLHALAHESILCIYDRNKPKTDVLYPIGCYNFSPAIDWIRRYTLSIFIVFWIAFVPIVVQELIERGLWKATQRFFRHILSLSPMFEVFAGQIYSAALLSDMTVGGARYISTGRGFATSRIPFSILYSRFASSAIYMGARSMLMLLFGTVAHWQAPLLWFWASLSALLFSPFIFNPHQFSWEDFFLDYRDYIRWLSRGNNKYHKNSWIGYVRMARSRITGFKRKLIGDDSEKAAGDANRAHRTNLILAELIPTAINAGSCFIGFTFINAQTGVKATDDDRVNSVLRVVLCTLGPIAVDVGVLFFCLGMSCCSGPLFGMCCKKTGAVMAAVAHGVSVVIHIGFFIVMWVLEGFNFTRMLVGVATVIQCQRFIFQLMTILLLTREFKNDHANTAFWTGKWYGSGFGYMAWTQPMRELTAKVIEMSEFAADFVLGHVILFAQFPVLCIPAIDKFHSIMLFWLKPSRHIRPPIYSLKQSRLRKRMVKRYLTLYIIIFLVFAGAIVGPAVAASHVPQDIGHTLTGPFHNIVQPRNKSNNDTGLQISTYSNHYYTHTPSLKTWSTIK

With `CCC(C)CC(C)CCCCCCCCC(=O)NC1C[C@@H](O)[C@@H](OCCN)NC(=O)C2CN(C[C@@H]2O)C(=O)[C@H]([C@H](O)CCNC(=O)[C@@H](N)CCCN)NC(=O)[C@H]([C@H](O)[C@@H](O)c2ccc(O)cc2)NC(=O)C2C[C@@H](O)CN2C(=O)[C@H]([C@@H](C)O)NC1=O` (stereo not given in full) as the compound, how does the pIC50 (1,3-beta-glucan synthase) read?
Its pIC50 is 8.82.

And the MFC (Candida albicans [1])?
The MFC was under 0.06 µg/mL.

What about the MFC90 (Candida albicans [2]) of the same compound?
The MFC90 was 1 µg/mL (≈ 0.827 µM).

What about the MFC90 [3] of the same compound?
The MFC90 was 8 µg/mL (≈ 6.62 µM).

What about the MFC90 (Pichia kudriavzevii) of the same compound?
Its MFC90 is 4 µg/mL (≈ 3.31 µM).

And the MFC90 (Kluyveromyces marxianus)?
Its MFC90 is 1 µg/mL (≈ 0.827 µM).

What about the MFC90 (Nakaseomyces glabratus) of the same compound?
The MFC90 was 2 µg/mL (≈ 1.65 µM).

What about the MFC90 (Candida parapsilosis) of the same compound?
The MFC90 was 1 µg/mL (≈ 0.827 µM).

And the MFC90 (Candida tropicalis)?
Its MFC90 is 1 µg/mL (≈ 0.827 µM).

And the MFC90 (Clavispora lusitaniae)?
Its MFC90 is 0.5 µg/mL (≈ 0.414 µM).

And the MFC90 (Cryptococcus neoformans)?
The MFC90 was 32 µg/mL (≈ 26.5 µM).

And the ED99.9 (Mus musculus [4])?
The ED99.9 was 0.09 mg/kg.

And the ED50 (Mus musculus [5])?
The ED50 was 0.03 mg/kg.

What about the Sterilized (Mus musculus [6]) of the same compound?
The Sterilized was 70%.

And the Dose [7]?
The Dose was 80 mg/kg.
